This is an account of results in US20060205949A1, “Crystalline forms of a biphenyl compound” (THERAVANCE, INC., priority 2005, published 2006).

Test [1] deals with T1, hM3 receptor (CHO cells) (Homo sapiens, UniProt P20309).
T1 construct: expressed in transfected cells
As to the kind of experiment: Blockade of agonist-mediated calcium release via FLIPR. The class given is cell-based. The settings on record: CHO cells stably expressing the hM3 receptor, this or a similar assay. The text has this: Muscarinic receptor subtypes (M1, M3 and M5 receptors), which couple to Gq proteins, activate the phospholipase C (PLC) pathway upon agonist binding to the receptor. As a result, activated PLC hydrolyzes phosphatyl inositol diphosphate (PIP2) to diacylglycerol (DAG) and […] (IP3), which in turn generates calcium release from intracellular stores, i.e., endoplasmic and sarcoplasmic reticulum. The FLIPR (Molecular Devices, Sunnyvale, Calif.) assay capitalizes on this increase in intracellular calcium by using a calcium sensitive dye (Fluo-4AM, Molecular Probes, Eugene, Oreg.) that fluoresces when free calcium binds. This fluorescence event was measured in real time by the FLIPR, which detected the change in fluorescence from a monolayer of cells cloned with human M1 and M3, and chimpanzee M5 receptors. Antagonist potency was determined by the ability of antagonists to inhibit agonist-mediated increases in intracellular calcium.
For FLIPR calcium stimulation assays, CHO cells stably expressing the hM1, hM3 and cM5 receptors were seeded into 96-well FLIPR plates the night before the assay was done. […]
To determine antagonist potency, the dose-dependent stimulation of intracellular Ca^2+ release for oxotremorine was first determined so that antagonist potency can later be measured against oxotremorine stimulation at an EC90 concentration. […]

For test [2], the system named is ACh-induced bronchoconstriction. The test is described as follows: Duration of bronchoprotection in guinea pig model of acetylcholine-induced bronchoconstriction. The class given is in vivo. The note with it: inhalation, 1.5 hours post-dose, expected. The method, then: Groups of six male guinea pigs (Duncan-Hartley (HsdPoc:DH) Harlan, Madison, Wis.) weighing between 250 and 350 g are individually identified by cage cards. Throughout the study animals are allowed access to food and water ad libitum.
Test compounds are administered via inhalation over 10 minutes in a whole-body exposure dosing chamber (R&S Molds, San Carlos, Calif.). The dosing chambers are arranged so that an aerosol was simultaneously delivered to 6 individual chambers from a central manifold. Guinea pigs are exposed to an aerosol of a test compound or vehicle (WFI). […] This is measured gravimetrically by comparing pre-and post-nebulization weights of the filled nebulizer.
The bronchoprotective effects of test compounds administered via inhalation are evaluated using whole body plethysmography at 1.5, 24, 48 and 72 hours post-dose.
Forty-five minutes prior to the start of the pulmonary evaluation, each guinea pig is anesthetized with an intramuscular injection of ketamine (43.75 mg/kg), xylazine (3.50 mg/kg) and acepromazine (1.05 mg/kg). […] The depth of anesthesia is monitored and adjusted if the animal responds to pinching of its paw or if the respiration rate is greater than 100 breaths/minute. […]
Starting this program initiates the experimental protocol and data collection. […] By integrating this signal over time, a measurement of […] is calculated for each breath. […]

Some results are limits rather than exact numbers.

T1 sequence (P20309 whole entry): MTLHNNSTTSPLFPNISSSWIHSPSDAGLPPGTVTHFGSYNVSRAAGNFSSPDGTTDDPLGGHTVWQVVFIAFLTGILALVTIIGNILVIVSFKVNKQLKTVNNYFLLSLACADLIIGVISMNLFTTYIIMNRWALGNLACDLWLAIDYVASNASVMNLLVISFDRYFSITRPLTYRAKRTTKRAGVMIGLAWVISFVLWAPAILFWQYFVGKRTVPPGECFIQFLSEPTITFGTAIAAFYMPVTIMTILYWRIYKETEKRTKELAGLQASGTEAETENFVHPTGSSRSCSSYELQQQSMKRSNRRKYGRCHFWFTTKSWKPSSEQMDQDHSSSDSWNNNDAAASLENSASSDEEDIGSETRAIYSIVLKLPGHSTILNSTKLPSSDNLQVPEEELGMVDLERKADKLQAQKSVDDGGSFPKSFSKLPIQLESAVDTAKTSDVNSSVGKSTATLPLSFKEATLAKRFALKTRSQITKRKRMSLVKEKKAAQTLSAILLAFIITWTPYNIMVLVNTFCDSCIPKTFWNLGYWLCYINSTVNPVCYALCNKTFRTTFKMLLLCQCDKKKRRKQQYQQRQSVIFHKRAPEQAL

Consider `O=C(CCN1CCC(OC(=O)Nc2ccccc2-c2ccccc2)CC1)NCCCCCNCc1ccc(O)cc1` [compound of formula I, biphenyl-2-ylcarbamic acid 1-{2-[5-(4-hydroxybenzylamino)pentylcarbamoyl]ethyl}piperidin-4-yl ester], for which the inhibition constant (Ki) (usually a measure of affinity in units of concentration, obtained from inhibition or displacement) in test [1] was below 10 nM. For the same compound, the “PD2(50) for ACh-induced bronchoconstriction” value in test [2] is listed as “less than 200 μg/mL”.
